Reference: paper PMC12481576, “Barbituric Acid Derivatives as Covalent Inhibitors of Leishmania braziliensis Dihydroorotate Dehydrogenase” (Journal of Medicinal Chemistry, 2025)
Values after ≈ are worked out from the molar mass of the structure shown. Where two headings read alike, the source gives them in different places.

Legend:
[1] = Kinetic solubility assay in PBS pH 7.4; type: physicochemical; settings: PBS pH 7.4, 200 μM test conc, 1% DMSO, 2 h at 25 °C
Method: The plate was incubated for 2 h at 25 °C. The precipitates on the incubation plate were removed by filtration and the filtrates were quantified by LC-MS/MS. Calibration curves were prepared for each compound by using 5–6 points. Samples were analyzed by UV–vis.

LbDHODH [2] = target: T1, LbDHODH (Leishmania braziliensis, UniProt E9AI53); assay: biochemical; settings: for IC50: LbDHODH
T1 sequence (E9AI53 entry or part of it): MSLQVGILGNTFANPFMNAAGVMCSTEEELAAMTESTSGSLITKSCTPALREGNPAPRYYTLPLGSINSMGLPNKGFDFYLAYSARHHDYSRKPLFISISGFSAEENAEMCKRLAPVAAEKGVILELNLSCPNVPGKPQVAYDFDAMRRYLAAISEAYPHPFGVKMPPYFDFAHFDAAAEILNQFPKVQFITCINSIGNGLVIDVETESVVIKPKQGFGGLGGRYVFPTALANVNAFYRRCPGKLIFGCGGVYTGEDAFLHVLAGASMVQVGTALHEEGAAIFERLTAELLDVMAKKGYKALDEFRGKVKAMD
Method: To assess the ability of compounds 2a–2i to inhibit LbDHODH via covalent bond formation with Cys^131, we initially screened them at a concentration of 100 μM under two conditions: with and without a 4-h preincubation with the enzyme.
The experiments were performed in a 96-well microplate reader (SpectraMax Plus 384, Molecular Devices, USA), containing the […] of the buffer 60 mM DCIP, 50 mM Tris pH 8.15, 150 mM KCl, 0.1% Triton X-100, 50 μM DHO and 10 μM of LbDHODH at 165 nM. The reaction was monitored every 3 s at 610 nm over a period of 60 s, in triplicate, for the control and each concentration of the inhibitor. All assays were performed without incubation (0h) and with 4-h preincubation of the inhibitor with LbDHODH, using 5% DMSO (v/v) as control. […]. […] The resulting kobs values were plotted as a function of inhibitor concentration, and the data in the initial linear region was fit to determine the slope, which is kinact/KI. All regressions were performed with GraphPad Prism 9.

LbDHODH [3] = target: T1, LbDHODH; assay: Kinact/KI determination from LbDHODH progress curves (kobs vs inhibitor concentration); type: biochemical
Text: The Kinact/Ki ratio is a key parameter for evaluating the potency of covalent inhibitors, as it quantitatively measures both their reactivity and affinity for the target enzyme. This parameter integrates two crucial aspects: KI, which reflects the inhibitor’s binding affinity, and Kinact, which describes the rate at which the covalent bond is formed. […] Therefore, this ratio is essential for ranking covalent inhibitors, optimizing their potency, and guiding structure-based drug design.
The experiments were performed in a 96-well microplate reader (SpectraMax Plus 384, Molecular Devices, USA), containing the […] of the buffer 60 mM DCIP, 50 mM Tris pH 8.15, 150 mM KCl, 0.1% Triton X-100, 50 μM DHO and 10 μM of LbDHODH at 165 nM. The reaction was monitored every 3 s at 610 nm over a period of 60 s, in triplicate, for the control and each concentration of the inhibitor. All assays were performed without incubation (0h) and with 4-h preincubation of the inhibitor with LbDHODH, using 5% DMSO (v/v) as control. […] To determine the IC50 values, the activity percentage data were fitted as a function of the concentration logarithm by nonlinear regression analysis (variable hillslope) using Prism 9.0 software (GraphPad Software, USA). […] The resulting kobs values were plotted as a function of inhibitor concentration, and the data in the initial linear region was fit to determine the slope, which is kinact/KI. All regressions were performed with GraphPad Prism 9.

HsDHODH = target: T2, HsDHODH (Homo sapiens, UniProt Q02127); assay: Selectivity assay: HsDHODH single-dose inhibition (DCIP reduction); type: biochemical
T2 construct: made in house
T2 sequence (Q02127 whole entry): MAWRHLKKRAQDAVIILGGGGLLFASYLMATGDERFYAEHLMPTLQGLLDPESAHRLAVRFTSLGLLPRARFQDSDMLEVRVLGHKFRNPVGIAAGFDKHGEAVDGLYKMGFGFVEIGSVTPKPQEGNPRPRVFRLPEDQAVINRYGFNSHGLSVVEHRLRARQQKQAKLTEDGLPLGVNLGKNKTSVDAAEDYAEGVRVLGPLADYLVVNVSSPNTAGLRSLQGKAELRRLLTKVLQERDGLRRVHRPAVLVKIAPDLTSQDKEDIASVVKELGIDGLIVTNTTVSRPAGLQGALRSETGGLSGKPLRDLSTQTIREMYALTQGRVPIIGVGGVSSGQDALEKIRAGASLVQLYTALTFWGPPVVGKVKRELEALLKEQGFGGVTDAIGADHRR
Method: […]. This finding highlights the potential of barbituric acid derivatives as selective inhibitors of LbDHODH.
Human DHODH expression and purification were conducted following a protocol previously established in our laboratory. The purification was carried out by affinity chromatography on a Ni-NTA Agarose column (Qiagen[…] Cat. No. 30210). […] The reaction was performed in triplicate, initiated by adding 195 μL of reaction buffer to 5 μL of HsDHODH protein solution for a final concentration of 20 nM enzyme. As a blank, 195 μL of reaction buffer was added to 5 μL of Buffer A. The reaction was monitored at 610 nm every 3 s over 60 s. As a control, 5 μL of enzyme was added to 195 μL of reaction medium without compound. Enzymatic velocity was calculated, and the percentage of relative enzymatic activity was determined relative to the control.

[4] = system: Leishmania braziliensis promastigotes; assay: Leishmanicidal activity, promastigote growth (SYBR Green, 72 h); type: cell-based, Leishmania (V.) braziliensis (MHOM/BR/1975/M2904); settings: Leishmania braziliensis, L. braziliensis promastigotes, max 200 μM
Method: The cultures were adjusted to 4 × 10^6 parasites per mL, and 50 μL of each culture was added on a test plate with 384 wells (Corning, #CLS3658), along with the controls and compounds to be tested. Previously diluted compounds in DMSO were added to plates in decreasing concentrations, with a maximum concentration of 200 μM. Parasites were exposed to a final concentration of DMSO in various dilutes (final = 0.5%), and the culture medium was used as the control for the experiment. […] After adding the lysis buffer, the plates were incubated in the dark for 2 h with gentle shaking. The readings were done using a SpectraMax M3 reader (excitation at 485 nm and emission at 535 nm).

[5] = Cell viability / cytotoxicity assay (PrestoBlue, 72 h); type: cell-based; settings: human; THP-1 cell line, 72 h, max 200 μM; read-out: CC50
Method: THP-1 cells (American Type Cell Collection, #TIB-202) were acquired in 2019 and stored frozen in liquid nitrogen. The cells were then maintained in RPMI 1640 (Thermo Fisher Scientific, #S31800–022) at 37 °C in a 5% CO2 atmosphere and routinely tested for Mycoplasma contamination by PCR using the primers 5′-[…] and 5′-[…]. To test the toxicity of compounds, 5000 cells were added to 96-well plates with a final volume of 80 μL centrifuged at 400g for 2 min and incubated with 150 ng/mL of phorbol myristate acetate (Merck, #P8139) for 48 h. The medium was replaced, and after 24 h, the compounds were added and tested at decreasing concentrations starting from 200 μM (10 μL/well). After 72 h of incubation, 10 μL of PrestoBlue Cell Viability Reagent (Thermo Fisher Scientific, #A13262) was added per well. After adding the reagent, the cells were incubated for 2 h at 37 °C in a 5% CO2 atmosphere, and fluorescence readings were performed using the SpectraMax M3 reader (excitation at 560 nm and emission at 590 nm).

[6] = 0 h, pH 8.15, read-out: LbDHODH Activity±SD (%)
[7] = 4 h, pH 8.15, read-out: LbDHODH Activity±SD (%)
[8] = read-out: Single dose (0h) % activity
[9] = read-out: Single dose (4h) % activity

In the case of `CC/C(=C(/CC)c1ccc(O)cc1)c1ccc(O)cc1` [Diethylstilbesterol, reference compound], the solubility kinetic at 2 h [1] is reported as 9.98 µM (≈ 2.68 µg/mL).
`O=C(CCCN1CCC(O)(c2ccc(Cl)cc2)CC1)c1ccc(F)cc1` [Haloperidol, reference compound] gave a solubility kinetic at 2 h ([1]; phosphate buffered saline, aqueous buffer, kinetic from dmso stock) of 30.3 µM (≈ 11.4 µg/mL).
In the case of `O=C1NC(=O)C(=Cc2ccccc2)C(=O)N1` [2a, 5-Benzylidenepyrimidine-2,4,6(1H,3H,5H)-trione], the activity at 0.195312 µM (LbDHODH [2]; [6]) is reported as 108 ± 9%, the activity at 0.390625 µM (LbDHODH [2]; [6]) is reported as 106 ± 13% and the activity at 0.78125 µM (LbDHODH [2]; [6]) is reported as 110 ± 8%. It also gave an activity at 1.5625 µM (LbDHODH [2]; [6]) of 103 ± 8%, an activity at 3.125 µM (LbDHODH [2]; [6]) of 106 ± 8% and an activity at 6.25 µM (LbDHODH [2]; [6]) of 88 ± 10%. For the same compound, the activity at 12.5 µM (LbDHODH [2]; [6]) was 73 ± 9%, the activity at 25 µM (LbDHODH [2]; [6]) was 60 ± 9% and the activity at 50 µM (LbDHODH [2]; [6]) was 54 ± 9%. It also gave an activity at 100 µM (LbDHODH [2]; [6]) of 36 ± 5%, an activity at 200 µM (LbDHODH [2]; [6]) of 27 ± 9% and an activity at 400 µM (LbDHODH [2]; [6]) of 20 ± 2%. For the same compound, the activity at 0.195312 µM (LbDHODH [2]; [7]) was 110 ± 16%, the activity at 0.390625 µM (LbDHODH [2]; [7]) was 92 ± 13% and the activity at 0.78125 µM (LbDHODH [2]; [7]) was 91 ± 6%. For the same compound, the activity at 1.5625 µM (LbDHODH [2]; [7]) was 84 ± 15%, the activity at 3.125 µM (LbDHODH [2]; [7]) was 74 ± 10% and the activity at 6.25 µM (LbDHODH [2]; [7]) was 54 ± 4%. The activity at 12.5 µM (LbDHODH [2]; [7]) was 55 ± 5%, the activity at 25 µM (LbDHODH [2]; [7]) was 44 ± 3% and the activity at 50 µM (LbDHODH [2]; [7]) was 29 ± 10%. It also gave an activity at 100 µM (LbDHODH [2]; [7]) of 21 ± 1%, an activity at 200 µM (LbDHODH [2]; [7]) of 5 ± 1% and an activity at 400 µM (LbDHODH [2]; [7]) of 6 ± 2%. It also gave an IC50 (LbDHODH [2]; IC50 0 h, without preincubation) of 56 ± 5 µM, an IC50 (LbDHODH [2]; IC50 4 h, 4-h preincubation) of 13 ± 2 µM and an activity at 100 µM (LbDHODH [2]; [8]) of 11 ± 9%. For the same compound, the activity at 100 µM (LbDHODH [2]; [9]) was 3.5 ± 0.2%, the inhibition at 100 µM (LbDHODH [2]; read-out: enzyme inhibition) was 96.5% and the Kobs (LbDHODH [3]; inhibitor 0.390625 µM) was 0.003884 ± 0.002 s⁻¹. The Kobs (LbDHODH [3]; inhibitor 0.78125 µM) was 0.003327 ± 0.002 s⁻¹, the Kobs (LbDHODH [3]; inhibitor 1.5625 µM) was 0.003467 ± 0.002 s⁻¹ and the Kobs (LbDHODH [3]; inhibitor 3.125 µM) was 0.003356 ± 0.002 s⁻¹. The Kobs (LbDHODH [3]; inhibitor 6.25 µM) was 0.003415 ± 0.002 s⁻¹, the Kobs (LbDHODH [3]; inhibitor 12.5 µM) was 0.003372 ± 0.002 s⁻¹ and the Kobs (LbDHODH [3]; inhibitor 25 µM) was 0.003515 ± 0.002 s⁻¹. The Kobs (LbDHODH [3]; inhibitor 50 µM) was 0.003742 ± 0.001 s⁻¹, the Kobs (LbDHODH [3]; inhibitor 100 µM) was 0.004728 ± 0.001 s⁻¹ and the Kobs (LbDHODH [3]; inhibitor 200 µM) was 0.006479 ± 0.003 s⁻¹. It also gave a kinact/KI (LbDHODH [3]; slope of kobs vs inhibitor concentration) of 17 M⁻¹ s⁻¹, an activity at 100 µM (HsDHODH; [8]) of 87 ± 10% and an activity at 100 µM (HsDHODH; [9]) of 79 ± 8%. The EC50 [4] was > 200 µM and the CC50 at 72 h [5] was > 200 µM.
